What all share (experiment): relative viability (nuclei count vs DMSO), 5 days (fraction); higher = more cells survive
Compound in the assay “CAP-232 + Lapatinib”: C[C@H]([C@@H](C(=O)N)NC(=O)[C@@H]1CSSC[C@@H](C(=O)N[C@H](C(=O)N[C@@H](C(=O)N[C@H](C(=O)N1)CCCCN)CC2=CNC3=CC=CC=C32)CC4=CC=C(C=C4)O)NC(=O)[C@@H](CC5=CC=CC=C5)N)O [CAP-232] + CS(=O)(=O)CCNCc1ccc(-c2ccc3ncnc(Nc4ccc(OCc5cccc(F)c5)c(Cl)c4)c3c2)o1 [Lapatinib] (partner 2 µM)
The essentials:
(§1)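 Relative viability equals treated-well nuclei counts divided by vehicle-well nuclei counts. Counts came from 4× images of lung cancer cell lines grown in 1536-well plates for 5 days after pin-tool dosing on the day after seeding. Dosing used one drug alone or a fixed anchor-drug dose plus five library-drug doses (not always all listed) in √10 steps, and values are medians of duplicate plates.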

Compound in the assay “CAP-232 + Luminespib”: C[C@H]([C@@H](C(=O)N)NC(=O)[C@@H]1CSSC[C@@H](C(=O)N[C@H](C(=O)N[C@@H](C(=O)N[C@H](C(=O)N1)CCCCN)CC2=CNC3=CC=CC=C32)CC4=CC=C(C=C4)O)NC(=O)[C@@H](CC5=CC=CC=C5)N)O [CAP-232] + CCNC(=O)c1noc(-c2cc(C(C)C)c(O)cc2O)c1-c1ccc(CN2CCOCC2)cc1 [Luminespib] (partner 0.01 µM)
Put shortly: as §1

Compound in the assay “CAP-232 + Palbociclib”: C[C@H]([C@@H](C(=O)N)NC(=O)[C@@H]1CSSC[C@@H](C(=O)N[C@H](C(=O)N[C@@H](C(=O)N[C@H](C(=O)N1)CCCCN)CC2=CNC3=CC=CC=C32)CC4=CC=C(C=C4)O)NC(=O)[C@@H](CC5=CC=CC=C5)N)O [CAP-232] + CC(=O)c1c(C)c2cnc(Nc3ccc(N4CCNCC4)cn3)nc2n(C2CCCC2)c1=O [Palbociclib] (partner 0.5 µM)
Put shortly: as §1

Compound in the assay “CAP-232 + Pictilisib”: C[C@H]([C@@H](C(=O)N)NC(=O)[C@@H]1CSSC[C@@H](C(=O)N[C@H](C(=O)N[C@@H](C(=O)N[C@H](C(=O)N1)CCCCN)CC2=CNC3=CC=CC=C32)CC4=CC=C(C=C4)O)NC(=O)[C@@H](CC5=CC=CC=C5)N)O [CAP-232] + CS(=O)(=O)N1CCN(Cc2cc3nc(-c4cccc5[nH]ncc45)nc(N4CCOCC4)c3s2)CC1 [Pictilisib] (partner 1 µM)
The essentials: as §1

Compound in the assay “CAP-232 + Trametinib”: C[C@H]([C@@H](C(=O)N)NC(=O)[C@@H]1CSSC[C@@H](C(=O)N[C@H](C(=O)N[C@@H](C(=O)N[C@H](C(=O)N1)CCCCN)CC2=CNC3=CC=CC=C32)CC4=CC=C(C=C4)O)NC(=O)[C@@H](CC5=CC=CC=C5)N)O [CAP-232] + CC(=O)Nc1cccc(-n2c(=O)n(C3CC3)c(=O)c3c(Nc4ccc(I)cc4F)n(C)c(=O)c(C)c32)c1 [Trametinib] (partner 0.02 µM)
Put shortly: as §1

As to NCI-H2085, the relative viability in the assay with CAP-232 + Lapatinib (first compound 0.4 µM) is 0.833; with CAP-232 + Lapatinib (first compound 1.265 µM), 0.789; with CAP-232 + Lapatinib (first compound 4 µM), 0.732; with CAP-232 + Lapatinib (first compound 12.65 µM), 0.878; in the assay with CAP-232 + Luminespib (first compound 0.4 µM) it was 0.472; with CAP-232 + Luminespib (first compound 1.265 µM), 0.459. Besides, the relative viability was found to be 0.425 with CAP-232 + Luminespib (first compound 4 µM); 0.462 with CAP-232 + Luminespib (first compound 12.65 µM); 0.465 with CAP-232 + Palbociclib (first compound 0.4 µM); 0.495 in the assay with CAP-232 + Palbociclib (first compound 1.265 µM); 0.447 with CAP-232 + Palbociclib (first compound 4 µM); 0.5 with CAP-232 + Palbociclib (first compound 12.65 µM). Moreover, the relative viability with CAP-232 + Pictilisib (first compound 0.4 µM) amounted to 0.475; with CAP-232 + Pictilisib (first compound 1.265 µM), 0.421; with CAP-232 + Pictilisib (first compound 4 µM), 0.355; with CAP-232 + Pictilisib (first compound 12.65 µM) it was 0.538; with CAP-232 + Trametinib (first compound 0.4 µM), 0.514; with CAP-232 + Trametinib (first compound 1.265 µM), 0.586. Moreover, the relative viability with CAP-232 + Trametinib (first compound 4 µM) is 0.532; with CAP-232 + Trametinib (first compound 12.65 µM), 0.569.
Regarding NCI-H2087, the relative viability with CAP-232 + Lapatinib (first compound 0.4 µM) amounted to 1.08; in the assay with CAP-232 + Lapatinib (first compound 1.265 µM), 1.02; with CAP-232 + Lapatinib (first compound 4 µM), 1.03; with CAP-232 + Lapatinib (first compound 12.65 µM), 0.519; in the assay with CAP-232 + Luminespib (first compound 0.4 µM), 0.187; with CAP-232 + Luminespib (first compound 1.265 µM), 0.157. For the same cell line, the relative viability with CAP-232 + Luminespib (first compound 4 µM) worked out at 0.146; with CAP-232 + Luminespib (first compound 12.65 µM), 0.143; with CAP-232 + Palbociclib (first compound 0.4 µM) it was 0.214; with CAP-232 + Palbociclib (first compound 1.265 µM), 0.225; with CAP-232 + Palbociclib (first compound 4 µM), 0.218; with CAP-232 + Palbociclib (first compound 12.65 µM), 0.226. In addition, the relative viability in the assay with CAP-232 + Pictilisib (first compound 0.4 µM) turned out to be 0.791; with CAP-232 + Pictilisib (first compound 1.265 µM), 0.983; with CAP-232 + Pictilisib (first compound 4 µM), 0.929; in the assay with CAP-232 + Pictilisib (first compound 12.65 µM), 0.484; in the assay with CAP-232 + Trametinib (first compound 0.4 µM), 0.188; in the assay with CAP-232 + Trametinib (first compound 1.265 µM), 0.228. Further, the relative viability worked out at 0.201 in the assay with CAP-232 + Trametinib (first compound 4 µM) and 0.205 in the assay with CAP-232 + Trametinib (first compound 12.65 µM).
With NCI-H2126, the relative viability was 0.762 in the assay with CAP-232 + Lapatinib (first compound 0.4 µM); 0.694 with CAP-232 + Lapatinib (first compound 1.265 µM); 0.895 with CAP-232 + Lapatinib (first compound 4 µM); 0.797 with CAP-232 + Lapatinib (first compound 12.65 µM); 0.909 with CAP-232 + Luminespib (first compound 0.4 µM); 0.955 in the assay with CAP-232 + Luminespib (first compound 1.265 µM). Moreover, the relative viability with CAP-232 + Luminespib (first compound 4 µM) amounted to 0.992; in the assay with CAP-232 + Luminespib (first compound 12.65 µM), 0.659; with CAP-232 + Palbociclib (first compound 0.4 µM), 0.345; with CAP-232 + Palbociclib (first compound 1.265 µM) it was 0.315; with CAP-232 + Palbociclib (first compound 4 µM), 0.341; with CAP-232 + Palbociclib (first compound 12.65 µM), 0.359. Moreover, the relative viability with CAP-232 + Pictilisib (first compound 0.4 µM) is 0.501; with CAP-232 + Pictilisib (first compound 1.265 µM) it was 0.468; with CAP-232 + Pictilisib (first compound 4 µM) it was 0.482; in the assay with CAP-232 + Pictilisib (first compound 12.65 µM), 0.525; in the assay with CAP-232 + Trametinib (first compound 0.4 µM), 0.622; with CAP-232 + Trametinib (first compound 1.265 µM), 0.523. In addition, the relative viability with CAP-232 + Trametinib (first compound 4 µM) was 0.561; in the assay with CAP-232 + Trametinib (first compound 12.65 µM) it was 0.602.

For the origin of these results see the supplement of paper PMC10307832.
